Assay results: patent US4100346A, “Certain 7(o-amino-methyl- or methylaminomethylphenyl- or cyclohexadienyl- or thienylacetamide)-3[1-carboxymethyl-(or ethyl- or propyl-)-tetrazol-5-ylthiomethyl]-3-cephem-4-carboxylic acids” (Bristol-Myers Company, priority 1976, dated 1978)
Converted amounts (≈) assume the structure as drawn. Like-named read-outs stand apart in the source and are kept apart here.

Experiments:
Proteus vulgaris [1] = assay: Effect of inoculum size on susceptibility of Enterobacteriaceae
Pseudomonas aeruginosa = assay: Growth inhibitory activity, antibiotic dilution technique; details: read-out: Minimum inhibitory concentration
Proteus rettgeri [2] = assay: as above; details: Providencia rettgeri, read-out: percent of strains inhibited
Serratia marcescens = assay: as above; details: read-out: Minimum inhibitory concentration
Alcaligenes sp. = assay: as above
Enterobacter cloacae = assay: Minimum growth inhibitory and bactericidal concentrations for Enterobacteriaceae; assay type: cell-based; details: for MBC: read-out: MBC, minimum bactericidal concentration; for MIC: read-out: MIC, Minimum growth inhibitory concentration
Description: (§1) Miscellaneous. Methods for determining bactericidal activity and susceptibility to cell-free β-lactamase were those previously used; Leitner et al., BL-S640, A Cephalosporin With a Broad Spectrum of Antibacterial Activity: Properties in vitro, Antimicrob. Agents Chemother. 7:298-305 (1975).
(§2) *MIC, Minimum growth inhibitory concentration; MBC, minimum bactericidal
(§3) concentration; expressed as micrograms per milliliter. The inoculum was […]

Enterobacter aerogenes = assay: as above; assay type: cell-based; details: Klebsiella aerogenes, inoculum 10^4 cells; for MBC: read-out: MBC, minimum bactericidal concentration; for MIC: read-out: MIC, Minimum growth inhibitory concentration
Description: as §1, §2, §3

Proteus vulgaris [3] = assay: as above; assay type: cell-based; details: Proteus vulgaris, inoculum 10^4 cells; for MBC: read-out: MBC, minimum bactericidal concentration; for MIC: read-out: MIC, Minimum growth inhibitory concentration
Description: as §1, §2, §3

Proteus mirabilis = assay: as above; assay type: cell-based; details: for MBC: read-out: MBC, minimum bactericidal concentration; for MIC: read-out: MIC, Minimum growth inhibitory concentration
Description: as §1, §2, §3

Proteus rettgeri [4] = assay: as above; assay type: cell-based; details: Providencia rettgeri, inoculum 10^4 cells; for MBC: read-out: MBC, minimum bactericidal concentration; for MIC: read-out: MIC, Minimum growth inhibitory concentration
Description: as §1, §2, §3

Klebsiella pneumoniae = assay: as above; assay type: cell-based; details: for MBC: read-out: MBC, minimum bactericidal concentration; for MIC: read-out: MIC, Minimum growth inhibitory concentration
Description: as §1, §2, §3

Escherichia coli = assay: as above; assay type: cell-based; details: for MBC: read-out: MBC, minimum bactericidal concentration; for MIC: read-out: MIC, Minimum growth inhibitory concentration
Description: as §1, §2, §3

Providencia stuartii = assay: Growth inhibitory activity, antibiotic dilution technique; details: Providencia stuartii, read-out: percent of strains inhibited
Arizona hinshawii = assay: as above; details: Salmonella enterica, read-out: Minimum inhibitory concentration
[5] = Enterobacter cloacae strain 3, inoculum 10^4 cells
[6] = Enterobacter cloacae strain 4, inoculum 10^4 cells
[7] = Enterobacter cloacae strain 8, inoculum 10^4 cells
[8] = Enterobacter aerogenes strain 1
[9] = Enterobacter aerogenes strain 2
[10] = Enterobacter aerogenes strain 3
[11] = Proteus mirabilis strain 1, inoculum 10^4 cells
[12] = Proteus mirabilis strain 2, inoculum 10^4 cells
[13] = Proteus mirabilis strain 3, inoculum 10^4 cells
[14] = Proteus mirabilis strain 4, inoculum 10^4 cells
[15] = Proteus mirabilis strain 5, inoculum 10^4 cells
[16] = Klebsiella pneumoniae strain 1, inoculum 10^4 cells
[17] = Klebsiella pneumoniae strain 2, inoculum 10^4 cells
[18] = Klebsiella pneumoniae strain 3, inoculum 10^4 cells
[19] = Klebsiella pneumoniae strain 4, inoculum 10^4 cells
[20] = Klebsiella pneumoniae strain 5, inoculum 10^4 cells
[21] = Klebsiella pneumoniae strain 6, inoculum 10^4 cells
[22] = Escherichia coli strain 1, inoculum 10^4 cells
[23] = Escherichia coli strain 2, inoculum 10^4 cells
[24] = Escherichia coli strain 3, inoculum 10^4 cells
[25] = Escherichia coli strain 4, inoculum 10^4 cells
[26] = Escherichia coli strain 5, inoculum 10^4 cells
[27] = Escherichia coli strain 6, inoculum 10^4 cells

With Cc1nnc(SCC2=C(C(=O)O)N3C(=O)[C@@H](NC(=O)Cn4cnnn4)[C@H]3SC2)s1 [Cefazolin] the MIC (Proteus vulgaris [1]; read-out: Minimum Inhibitory Concentration, Proteus vulgaris strain 1, A, Inoculum of 10^2 organisms) was 4 µg/mL (≈ 8.8 µM), the MIC (Proteus vulgaris [1]; read-out: Minimum Inhibitory Concentration, Proteus vulgaris strain 1, B, Inoculum of 10^6 organisms) was 250 µg/mL (≈ 550 µM) and the MIC (Proteus vulgaris [1]; read-out: Minimum Inhibitory Concentration, Proteus vulgaris strain 2, A, Inoculum of 10^2 organisms) was 8 µg/mL (≈ 17.6 µM). For the same molecule, the MIC (Proteus vulgaris [1]; read-out: Minimum Inhibitory Concentration, Proteus vulgaris strain 2, B, Inoculum of 10^6 organisms) was 32 µg/mL (≈ 70.4 µM), the MIC (Proteus vulgaris [1]; read-out: Minimum Inhibitory Concentration, Proteus vulgaris strain 4, A, Inoculum of 10^2 organisms) was 8 µg/mL (≈ 17.6 µM) and the MIC (Proteus vulgaris [1]; read-out: Minimum Inhibitory Concentration, Proteus vulgaris strain 4, B, Inoculum of 10^6 organisms) was 32 µg/mL (≈ 70.4 µM). The MIC (Pseudomonas aeruginosa) was > 125 µg/mL, the inhibition at 16 µg/mL (Proteus rettgeri [2]) was 44% and the MIC (Serratia marcescens) was > 125 µg/mL. The MIC (Alcaligenes sp.; read-out: Minimum inhibitory concentration, Alcaligenes sp., 2 strains, geometric mean when applicable) was > 125 µg/mL, the MIC (Alcaligenes sp.; read-out: Minimum inhibitory concentration, Alcaligenes sp., 4 strains, geometric mean when applicable) was > 105 µg/mL and the MIC (Alcaligenes sp.; read-out: Minimum inhibitory concentration, Alcaligenes sp., 5 strains, geometric mean when applicable) was 4.6 µg/mL (≈ 10.1 µM). The MBC (Enterobacter cloacae; [5]) was 8 µg/mL (≈ 17.6 µM), the MIC (Enterobacter cloacae; [5]) was 4 µg/mL (≈ 8.8 µM) and the MBC (Enterobacter cloacae; [6]) was > 250 µg/mL. For the same molecule, the MIC (Enterobacter cloacae; [6]) was 250 µg/mL (≈ 550 µM), the MBC (Enterobacter cloacae; [7]) was > 250 µg/mL and the MIC (Enterobacter cloacae; [7]) was > 250 µg/mL. The MBC (Enterobacter aerogenes; [8]) was 125 µg/mL (≈ 275 µM), the MIC (Enterobacter aerogenes; [8]) was 32 µg/mL (≈ 70.4 µM) and the MBC (Enterobacter aerogenes; [9]) was > 250 µg/mL. The MIC (Enterobacter aerogenes; [9]) was 63 µg/mL (≈ 139 µM), the MBC (Enterobacter aerogenes; [10]) was 250 µg/mL (≈ 550 µM) and the MIC (Enterobacter aerogenes; [10]) was 63 µg/mL (≈ 139 µM). The MBC (Proteus vulgaris [3]; Proteus vulgaris strain 1) was 4 µg/mL (≈ 8.8 µM), the MIC (Proteus vulgaris [3]; Proteus vulgaris strain 1) was 4 µg/mL (≈ 8.8 µM) and the MBC (Proteus vulgaris [3]; Proteus vulgaris strain 2) was 16 µg/mL (≈ 35.2 µM). It also gave an MIC (Proteus vulgaris [3]; Proteus vulgaris strain 2) of 8 µg/mL (≈ 17.6 µM), an MBC (Proteus vulgaris [3]; Proteus vulgaris strain 4) of 16 µg/mL (≈ 35.2 µM) and an MIC (Proteus vulgaris [3]; Proteus vulgaris strain 4) of 8 µg/mL (≈ 17.6 µM). For the same molecule, the MBC (Proteus mirabilis; [11]) was 8 µg/mL (≈ 17.6 µM), the MIC (Proteus mirabilis; [11]) was 4 µg/mL (≈ 8.8 µM) and the MBC (Proteus mirabilis; [12]) was 16 µg/mL (≈ 35.2 µM). For the same molecule, the MIC (Proteus mirabilis; [12]) was 8 µg/mL (≈ 17.6 µM), the MBC (Proteus mirabilis; [13]) was 8 µg/mL (≈ 17.6 µM) and the MIC (Proteus mirabilis; [13]) was 8 µg/mL (≈ 17.6 µM). It also gave an MBC (Proteus mirabilis; [14]) of 8 µg/mL (≈ 17.6 µM), an MIC (Proteus mirabilis; [14]) of 4 µg/mL (≈ 8.8 µM) and an MBC (Proteus mirabilis; [15]) of 8 µg/mL (≈ 17.6 µM). For the same molecule, the MIC (Proteus mirabilis; [15]) was 8 µg/mL (≈ 17.6 µM), the MBC (Proteus rettgeri [4]; Proteus rettgeri strain 2) was 0.5 µg/mL (≈ 1.1 µM) and the MIC (Proteus rettgeri [4]; Proteus rettgeri strain 2) was 0.25 µg/mL (≈ 0.55 µM). For the same molecule, the MBC (Proteus rettgeri [4]; Proteus rettgeri strain 3) was > 250 µg/mL, the MIC (Proteus rettgeri [4]; Proteus rettgeri strain 3) was 4 µg/mL (≈ 8.8 µM) and the MBC (Klebsiella pneumoniae; [16]) was 2 µg/mL (≈ 4.4 µM). It also gave an MIC (Klebsiella pneumoniae; [16]) of 2 µg/mL (≈ 4.4 µM), an MBC (Klebsiella pneumoniae; [17]) of 2 µg/mL (≈ 4.4 µM) and an MIC (Klebsiella pneumoniae; [17]) of 1 µg/mL (≈ 2.2 µM). For the same molecule, the MBC (Klebsiella pneumoniae; [18]) was 2 µg/mL (≈ 4.4 µM), the MIC (Klebsiella pneumoniae; [18]) was 1 µg/mL (≈ 2.2 µM) and the MBC (Klebsiella pneumoniae; [19]) was 4 µg/mL (≈ 8.8 µM). The MIC (Klebsiella pneumoniae; [19]) was 2 µg/mL (≈ 4.4 µM), the MBC (Klebsiella pneumoniae; [20]) was 2 µg/mL (≈ 4.4 µM) and the MIC (Klebsiella pneumoniae; [20]) was 2 µg/mL (≈ 4.4 µM). It also gave an MBC (Klebsiella pneumoniae; [21]) of 4 µg/mL (≈ 8.8 µM), an MIC (Klebsiella pneumoniae; [21]) of 2 µg/mL (≈ 4.4 µM) and an MBC (Escherichia coli; [22]) of 2 µg/mL (≈ 4.4 µM). For the same molecule, the MIC (Escherichia coli; [22]) was 2 µg/mL (≈ 4.4 µM), the MBC (Escherichia coli; [23]) was 16 µg/mL (≈ 35.2 µM) and the MIC (Escherichia coli; [23]) was 8 µg/mL (≈ 17.6 µM). For the same molecule, the MBC (Escherichia coli; [24]) was 2 µg/mL (≈ 4.4 µM), the MIC (Escherichia coli; [24]) was 2 µg/mL (≈ 4.4 µM) and the MBC (Escherichia coli; [25]) was 2 µg/mL (≈ 4.4 µM). For the same molecule, the MIC (Escherichia coli; [25]) was 1 µg/mL (≈ 2.2 µM), the MBC (Escherichia coli; [26]) was 2 µg/mL (≈ 4.4 µM) and the MIC (Escherichia coli; [26]) was 2 µg/mL (≈ 4.4 µM). For the same molecule, the MBC (Escherichia coli; [27]) was 4 µg/mL (≈ 8.8 µM), the MIC (Escherichia coli; [27]) was 2 µg/mL (≈ 4.4 µM) and the inhibition at 16 µg/mL (Providencia stuartii) was 23%. It also gave an MIC (Arizona hinshawii) of 1 µg/mL (≈ 2.2 µM).
